Legend:
[1] = biological target: T1, rabbit lung ACE (Oryctolagus cuniculus, UniProt P12822); assay: Inhibition of rabbit lung ACE by the method of Friedland and Silverstein; type: biochemical; conditions: for IC50: rabbit lung ACE, method of Friedland and Silverstein, read-out: IC50 (M) = Concentration inhibiting 50% of the activity of rabbit lung ACE
T1 construct: from tissue; host or cells: rabbit lung
T1 sequence (P12822 34-1310): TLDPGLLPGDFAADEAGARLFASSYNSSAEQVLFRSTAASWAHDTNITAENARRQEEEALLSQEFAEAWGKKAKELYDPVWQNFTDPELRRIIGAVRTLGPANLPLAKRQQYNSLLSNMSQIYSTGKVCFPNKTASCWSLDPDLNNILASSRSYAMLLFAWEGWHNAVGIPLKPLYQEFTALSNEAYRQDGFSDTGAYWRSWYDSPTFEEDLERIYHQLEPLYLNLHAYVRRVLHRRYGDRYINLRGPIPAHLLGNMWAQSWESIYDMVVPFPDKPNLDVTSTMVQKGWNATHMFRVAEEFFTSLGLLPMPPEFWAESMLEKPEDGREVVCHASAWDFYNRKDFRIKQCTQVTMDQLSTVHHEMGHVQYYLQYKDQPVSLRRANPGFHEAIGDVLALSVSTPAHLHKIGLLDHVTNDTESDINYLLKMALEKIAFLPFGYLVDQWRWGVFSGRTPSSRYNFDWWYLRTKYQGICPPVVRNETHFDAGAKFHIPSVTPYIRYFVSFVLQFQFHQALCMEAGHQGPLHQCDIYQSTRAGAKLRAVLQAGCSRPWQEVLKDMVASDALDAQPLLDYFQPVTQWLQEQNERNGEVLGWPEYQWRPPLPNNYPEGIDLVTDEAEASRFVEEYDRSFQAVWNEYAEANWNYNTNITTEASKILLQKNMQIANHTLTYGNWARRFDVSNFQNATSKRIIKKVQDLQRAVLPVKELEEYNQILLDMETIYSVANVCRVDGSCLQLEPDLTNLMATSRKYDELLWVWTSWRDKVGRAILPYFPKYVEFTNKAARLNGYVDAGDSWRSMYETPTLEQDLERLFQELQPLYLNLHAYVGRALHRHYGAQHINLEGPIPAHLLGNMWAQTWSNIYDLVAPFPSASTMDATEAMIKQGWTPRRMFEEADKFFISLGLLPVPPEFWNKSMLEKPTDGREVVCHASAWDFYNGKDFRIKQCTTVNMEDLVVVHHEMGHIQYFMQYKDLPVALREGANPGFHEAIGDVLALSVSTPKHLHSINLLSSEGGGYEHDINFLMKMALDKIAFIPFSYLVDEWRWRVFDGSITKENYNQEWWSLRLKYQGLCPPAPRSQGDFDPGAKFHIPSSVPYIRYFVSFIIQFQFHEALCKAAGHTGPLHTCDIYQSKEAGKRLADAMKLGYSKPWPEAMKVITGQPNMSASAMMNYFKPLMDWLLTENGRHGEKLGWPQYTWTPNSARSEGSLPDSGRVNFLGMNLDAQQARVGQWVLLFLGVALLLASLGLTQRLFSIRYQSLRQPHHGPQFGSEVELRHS
Method: IC50 (M) = Concentration inhibiting 50% of the activity of rabbit
lung ACE was determined by the method of Friedland and Silverstein.

[2] = system: angiotensin converting enzyme; conditions: Nature 288, 280 (1980); Chem. Pharm. Bull. 34, 1128 (1986); cited from earlier work

SMILES	strength of activity relative to Lisinopril ([1]; ACE inhibition, compared with Lisinopril)	IC50 [1] [M]	order of strength of activity [2]
NCCCC[C@H](N[C@@H](CCC1CCCCC1)C(=O)O)C(=O)N(CC(=O)O)C1CCCC1 [N-[N^α -(1(S)-carboxy-3-cyclohexylpropyl)-L-lysyl]-N-cyclopentylglycine]	more than 10 times	1e-10	–
CCOC(=O)[C@H](CCc1ccccc1)N[C@@H](C)C(=O)N(CC(=O)O)C1Cc2ccccc2C1 [CV-3317]	–	–	Lisinopril>Enalapril>CV-3317
NCCCC[C@H](N[C@@H](CCc1ccccc1)C(=O)O)C(=O)N1CCC[C@H]1C(=O)O [Lisinopril]	–	1.1e-09	Lisinopril>Enalapril>CV-3317
CCOC(=O)[C@H](CCc1ccccc1)N[C@@H](C)C(=O)N1CCC[C@H]1C(=O)O [Enalapril]	–	–	Lisinopril>Enalapril>CV-3317

— patent US4897379A, “N-[N^α -(1(S)-carboxy-3-cyclohexylpropyl)-L-lysyl]-N-cyclopentylglycine as antihypertensives” (Asahi Breweries Ltd., priority 1987, dated 1990)
